From patent publication US5840684A, “Glycopeptide antibiotic derivatives” (Eli Lilly and Company, priority 1995, dated 1998)
In brackets after ≈: the same amount, converted by molar mass.

Tests used:
[1] = system: Haemophilus influenzae RD; test: broth micro-dilution MIC; type: cell-based; details: Haemophilus influenzae RD
Description: (§1) The formula I compounds have in vitro and in vivo activity against Gram-positive pathogenic bacteria. The MIC's were determined using a standard broth micro-dilution assay.

[2] = system: Staphylococcus haemolyticus 415; test: broth micro-dilution MIC; type: cell-based
Description: as §1

[3] = system: Streptococcus pneumoniae P1; test: broth micro-dilution MIC; type: cell-based
Description: as §1

[4] = system: Entercoccus faecium 2041; test: broth micro-dilution MIC; type: cell-based; details: Entercoccus faecium 2041
Description: as §1

[5] = system: Enterococcus gallinarum 245; test: broth micro-dilution MIC; type: cell-based; details: Enterococcus gallinarum 245
Description: as §1

[6] = system: Escherichia coli EC14; test: broth micro-dilution MIC; type: cell-based
Description: as §1

[7] = system: Entercoccus faecium 180; test: broth micro-dilution MIC; type: cell-based; details: Entercoccus faecium 180
Description: as §1

[8] = system: Staphylococcus epidermidis 270; test: broth micro-dilution MIC; type: cell-based
Description: as §1

[9] = system: Staphylococcus haemolyticus 105; test: broth micro-dilution MIC; type: cell-based
Description: as §1

[10] = system: vancomycin-resistant enterococci; test: broth micro-dilution, mean geometric MIC; type: cell-based, Enterococcus faecium and Enterococcus faecalis; details: enterococci, 24-hour incubation
[11] = system: vancomycin-susceptible enterococci; test: broth micro-dilution, mean geometric MIC; type: cell-based, Enterococcus faecium and Enterococcus faecalis; details: enterococci, 24-hour incubation
[12] = system: Staphylococcus aureus SA1199B; type: cell-based
Description: (§2) The MIC's were determined using a standard broth micro-dilution assay.

[13] = system: Staphylococcus aureus S13E; type: cell-based
Description: as §2

[14] = system: Staphylococcus aureus X778; test: broth micro-dilution MIC; type: cell-based
Description: as §2

[15] = system: Staphylococcus aureus SA1199A; test: broth micro-dilution MIC; type: cell-based
Description: as §2

[16] = system: Entercoccus faecium 180-1; test: broth micro-dilution MIC; type: cell-based
Description: as §2

[17] = system: Staphylococcus aureus 491; test: broth micro-dilution MIC; type: cell-based
Description: as §2

[18] = system: Staphylococcus aureus X400; test: broth micro-dilution MIC; type: cell-based
Description: as §2

[19] = system: Streptococcus pyogenes C203; test: broth micro-dilution MIC; type: cell-based
Description: as §2

[20] = system: Staphylococcus aureus SA1199; test: broth micro-dilution MIC; type: cell-based
Description: as §2

[21] = system: Staphylococcus aureus 489; test: broth micro-dilution MIC; type: cell-based
Description: as §2

[22] = system: Staphylococcus aureus 446; test: broth micro-dilution MIC; type: cell-based
Description: as §2

[23] = system: Staphylococcus aureus 447; test: broth micro-dilution MIC; type: cell-based
Description: as §2

[24] = system: Entercoccus faecium 276; test: broth micro-dilution MIC; type: cell-based
Description: as §2

Row | SMILES | MIC [1] [µg/mL] | MIC [2] [µg/mL] | MIC [3] [µg/mL] | MIC [4] [µg/mL] | MIC [5] [µg/mL] | MIC [6] [µg/mL] | MIC [7] [µg/mL] | MIC [8] [µg/mL] | MIC [9] [µg/mL] | mean geometric MIC, Vancomycin Resistant Strains [10] [µg/mL] | mean geometric MIC, Vancomycin Sensitive Strains [11] [µg/mL] | MIC [12] [µg/mL] | MIC [14] [µg/mL] | MIC [16] [µg/mL] | MIC [17] [µg/mL] | MIC [18] [µg/mL] | MIC [21] [µg/mL] | MIC [22] [µg/mL] | MIC [23] [µg/mL] | MIC [24] [µg/mL] | further results
1 | CNC(CC(C)C)C(=O)NC1C(=O)NC(CC(N)=O)C(=O)NC2C(=O)NC3C(=O)NC(C(=O)NC(C(=O)O)c4cc(O)cc(O)c4-c4cc3ccc4O)C(OC3CC(C)(NCc4ccc(-c5ccc([N+](=O)[O-])cc5)cc4)C(O)C(C)O3)c3ccc(c(Cl)c3)Oc3cc2cc(c3OC2OC(CO)C(O)C(O)C2OC2CC(C)(NCc3ccc(-c4ccc([N+](=O)[O-])cc4)cc3)C(O)C(C)O2)Oc2ccc(cc2Cl)C1O (centres unmarked) [Compound 263] | > 64 | 8 (≈ 3.97 µM) | ≤ 0.06 | ≤ 0.06 | 8 (≈ 3.97 µM) | 65 (≈ 32.3 µM) | ≤ 0.06 | 4 (≈ 1.99 µM) | 16 (≈ 7.94 µM) | 1.7 | 0.29 | 1 (≈ 0.496 µM) | 0.5 (≈ 0.248 µM) | ≤ 0.06 | 1 (≈ 0.496 µM) | 0.5 (≈ 0.248 µM) | 0.25 (≈ 0.124 µM) | 1 (≈ 0.496 µM) | 2 (≈ 0.993 µM) | 0.5 (≈ 0.248 µM) | MIC [13]: 1 µg/mL (≈ 0.496 µM); MIC [15]: ≤ 0.06 µg/mL; MIC [19]: ≤ 0.06 µg/mL; MIC [20]: 1 µg/mL (≈ 0.496 µM)
2 | CC(C)CC(C(=O)NC1C(=O)NC(CC(N)=O)C(=O)NC2C(=O)NC3C(=O)NC(C(=O)NC(C(=O)O)c4cc(O)cc(O)c4-c4cc3ccc4O)C(OC3CC(C)(N)C(O)C(C)O3)c3ccc(c(Cl)c3)Oc3cc2cc(c3OC2OC(CO)C(O)C(O)C2OC2CC(C)(NCc3ccc(N(C)c4ccccc4)cc3)C(O)C(C)O2)Oc2ccc(cc2Cl)C1O)N(C)Cc1ccc(N(C)c2ccccc2)cc1 (centres unmarked) [Compound 260] | > 64 | 2 (≈ 1.01 µM) | ≤ 0.06 | 1 (≈ 0.504 µM) | 0.25 (≈ 0.126 µM) | > 64 | 0.5 (≈ 0.252 µM) | 1 (≈ 0.504 µM) | 1 (≈ 0.504 µM) | 4.8 | 1.1 | 2 (≈ 1.01 µM) | 1 (≈ 0.504 µM) | 0.25 (≈ 0.126 µM) | 1 (≈ 0.504 µM) | 4 (≈ 2.02 µM) | 2 (≈ 1.01 µM) | 2 (≈ 1.01 µM) | 4 (≈ 2.02 µM) | 2 (≈ 1.01 µM) | MIC [13]: 4 µg/mL (≈ 2.02 µM); MIC [15]: 0.5 µg/mL (≈ 0.252 µM); MIC [19]: ≤ 0.06 µg/mL; MIC [20]: 2 µg/mL (≈ 1.01 µM)
3 | CNC(CC(C)C)C(=O)NC1C(=O)NC(CC(N)=O)C(=O)NC2C(=O)NC3C(=O)NC(C(=O)NC(C(=O)O)c4cc(O)cc(O)c4-c4cc3ccc4O)C(OC3CC(C)(N)C(O)C(C)O3)c3ccc(c(Cl)c3)Oc3cc2cc(c3OC2OC(CO)C(O)C(O)C2OC2CC(C)(NCc3ccc4ccccc4n3)C(O)C(C)O2)Oc2ccc(cc2Cl)C1O (centres unmarked) [Compound 30] | > 64 |  |  | ≤ 0.06 | ≤ 0.06 | > 64 | 2 (≈ 1.15 µM) | 2 (≈ 1.15 µM) | 4 (≈ 2.31 µM) | 4.7 | 0.071 | 0.125 (≈ 0.0721 µM) | ≤ 0.06 | ≤ 0.06 | 0.5 (≈ 0.288 µM) | ≤ 0.06 | 0.125 (≈ 0.0721 µM) | 1 (≈ 0.577 µM) | 2 (≈ 1.15 µM) | 0.25 (≈ 0.144 µM) | MIC [13]: 0.125 µg/mL (≈ 0.0721 µM); MIC [20]: 0.5 µg/mL (≈ 0.288 µM)
4 | CNC(CC(C)C)C(=O)NC1C(=O)NC(CC(N)=O)C(=O)NC2C(=O)NC3C(=O)NC(C(=O)NC(C(=O)O)c4cc(O)cc(O)c4-c4cc3ccc4O)C(OC3CC(C)(N)C(O)C(C)O3)c3ccc(c(Cl)c3)Oc3cc2cc(c3OC2OC(CO)C(O)C(O)C2OC2CC(C)(NCc3ccccn3)C(O)C(C)O2)Oc2ccc(cc2Cl)C1O (centres unmarked) [Compound 31] | > 64 |  |  |  |  | > 64 | 4 (≈ 2.38 µM) | 1 (≈ 0.594 µM) | 4 (≈ 2.38 µM) | 9.5 | 1.2 |  |  | ≤ 0.06 | 0.5 (≈ 0.297 µM) |  | ≤ 0.06 | 0.5 (≈ 0.297 µM) | 0.5 (≈ 0.297 µM) |  | 
5 | CNC(CC(C)C)C(=O)NC1C(=O)NC(CC(N)=O)C(=O)NC2C(=O)NC3C(=O)NC(C(=O)NC(C(=O)O)c4cc(O)cc(O)c4-c4cc3ccc4O)C(OC3CC(C)(NCc4ccc([N+](=O)[O-])cc4)C(O)C(C)O3)c3ccc(c(Cl)c3)Oc3cc2cc(c3OC2OC(CO)C(O)C(O)C2OC2CC(C)(NCc3ccc([N+](=O)[O-])cc3)C(O)C(C)O2)Oc2ccc(cc2Cl)C1O (centres unmarked) [Compound 245] | > 64 | 8 (≈ 4.29 µM) | 1 (≈ 0.537 µM) | ≤ 0.06 | ≤ 0.06 | 0.5 (≈ 0.268 µM) | 2 (≈ 1.07 µM) | 0.5 (≈ 0.268 µM) | 1 (≈ 0.537 µM) | 13 | 0.38 | ≤ 0.06 | ≤ 0.06 | ≤ 0.06 | 0.5 (≈ 0.268 µM) | ≤ 0.06 | ≤ 0.06 | ≤ 0.06 | ≤ 0.06 | ≤ 0.06 | MIC [15]: ≤ 0.06 µg/mL; MIC [19]: 2 µg/mL (≈ 1.07 µM); MIC [20]: 0.25 µg/mL (≈ 0.134 µM)
6 | CNC(CC(C)C)C(=O)NC1C(=O)NC(CC(N)=O)C(=O)NC2C(=O)NC3C(=O)NC(C(=O)NC(C(=O)O)c4cc(O)cc(O)c4-c4cc3ccc4O)C(OC3CC(C)(N)C(O)C(C)O3)c3ccc(c(Cl)c3)Oc3cc2cc(c3OC2OC(CO)C(O)C(O)C2OC2CC(C)(NCc3c4ccccc4c(Cl)c4ccccc34)C(O)C(C)O2)Oc2ccc(cc2Cl)C1O (centres unmarked) [Compound 18] | 16 (≈ 8.81 µM) | 8 (≈ 4.4 µM) | ≤ 0.06 | 0.25 (≈ 0.138 µM) | 1 (≈ 0.55 µM) | > 64 | 2 (≈ 1.1 µM) | 8 (≈ 4.4 µM) | 16 (≈ 8.81 µM) | 6.7 | 0.38 | 2 (≈ 1.1 µM) | 0.5 (≈ 0.275 µM) | ≤ 0.06 | 2 (≈ 1.1 µM) | 1 (≈ 0.55 µM) | 1 (≈ 0.55 µM) | 2 (≈ 1.1 µM) | 8 (≈ 4.4 µM) | 1 (≈ 0.55 µM) | MIC [13]: 1 µg/mL (≈ 0.55 µM); MIC [15]: ≤ 0.06 µg/mL; MIC [19]: ≤ 0.06 µg/mL
7 | CNC(CC(C)C)C(=O)NC1C(=O)NC(CC(N)=O)C(=O)NC2C(=O)NC3C(=O)NC(C(=O)NC(C(=O)O)c4cc(O)cc(O)c4-c4cc3ccc4O)C(OC3CC(C)(NCc4ccc5c(c4)Cc4ccccc4-5)C(O)C(C)O3)c3ccc(c(Cl)c3)Oc3cc2cc(c3OC2OC(CO)C(O)C(O)C2OC2CC(C)(NCc3ccc4c(c3)Cc3ccccc3-4)C(O)C(C)O2)Oc2ccc(cc2Cl)C1O (centres unmarked) [Compound 279] | > 64 | 2 (≈ 1.03 µM) | ≤ 0.06 | ≤ 0.06 | 2 (≈ 1.03 µM) | > 64 | ≤ 0.06 | 1 (≈ 0.513 µM) | 4 (≈ 2.05 µM) | 2.4 | 0.11 | ≤ 0.06 | 0.25 (≈ 0.128 µM) | ≤ 0.06 | 0.25 (≈ 0.128 µM) | 0.25 (≈ 0.128 µM) |  | 0.5 (≈ 0.257 µM) | 1 (≈ 0.513 µM) | 0.125 (≈ 0.0641 µM) | MIC [13]: 0.25 µg/mL (≈ 0.128 µM); MIC [15]: ≤ 0.06 µg/mL; MIC [19]: ≤ 0.06 µg/mL; MIC [20]: 0.5 µg/mL (≈ 0.257 µM)
